In PubChem BioAssay AID1918944 (Molecular Pharmacology Branch, DTP, NCI, 2023):

Tested on: 786-0 complex spheroid viability
Experiment: Anticancer human tumor 786-0 cell line growth inhibition;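 also: spheroids exposed to agents for seven days before readout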
Details: for IC50: curve of first compound; for viability, T/C: stronger effect = lower value
In short: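 Complex spheroids of tumor cells with HUVEC and human MSCs, exposed to iadademstat combined with other agents. Each agent tested in half-log steps from near clinical Cmax (else 10 microM top), DMSO ≤0.25%.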

[1] = second compound 0.1 µM, first compound 0.0316 µM
[2] = second compound 0.1 µM, first compound 0.1 µM
[3] = second compound 0.316 µM, first compound 0.0316 µM
[4] = second compound 0.316 µM, first compound 0.1 µM
[5] = second compound 1 µM, first compound 0.0316 µM
[6] = second compound 1 µM, first compound 0.1 µM
[7] = second compound 3.16 µM, first compound 0.0316 µM
[8] = second compound 3.16 µM, first compound 0.1 µM
[9] = second compound 10 µM, first compound 0.0316 µM
[10] = second compound 10 µM, first compound 0.1 µM

CC(C)c1c(-c2ccccc2)nc2c(C#N)c[nH]n2c1=O + NC1CCC(NC2CC2c2ccccc2)CC1
IC50 (second compound 0.1 µM): > 10 µM | IC50 (second compound 0.316 µM): > 10 µM | IC50 (second compound 1 µM): > 10 µM | IC50 (second compound 3.16 µM): > 10 µM | IC50 (second compound 10 µM): > 10 µM | viability, T/C [1]: 110% | viability, T/C [2]: 111% | viability, T/C (second compound 0.1 µM, first compound 0.316 µM): 119% | viability, T/C (second compound 0.1 µM, first compound 1 µM): 118% | viability, T/C (second compound 0.1 µM, first compound 3.16 µM): 116% | viability, T/C (second compound 0.1 µM, first compound 10 µM): 112% | viability, T/C [3]: 121% | viability, T/C [4]: 118% | viability, T/C (second compound 0.316 µM, first compound 0.316 µM): 118% | viability, T/C (second compound 0.316 µM, first compound 1 µM): 116% | viability, T/C (second compound 0.316 µM, first compound 3.16 µM): 115% | viability, T/C (second compound 0.316 µM, first compound 10 µM): 116% | viability, T/C [5]: 114% | viability, T/C [6]: 113% | viability, T/C (second compound 1 µM, first compound 0.316 µM): 113% | viability, T/C (second compound 1 µM, first compound 1 µM): 125% | viability, T/C (second compound 1 µM, first compound 3.16 µM): 112% | viability, T/C (second compound 1 µM, first compound 10 µM): 113% | viability, T/C [7]: 111% | viability, T/C [8]: 107% | viability, T/C (second compound 3.16 µM, first compound 0.316 µM): 108% | viability, T/C (second compound 3.16 µM, first compound 1 µM): 100% | viability, T/C (second compound 3.16 µM, first compound 3.16 µM): 107% | viability, T/C (second compound 3.16 µM, first compound 10 µM): 103% | viability, T/C [9]: 92.7% | viability, T/C [10]: 95.3% | viability, T/C (second compound 10 µM, first compound 0.316 µM): 95.2% | viability, T/C (second compound 10 µM, first compound 1 µM): 98.8% | viability, T/C (second compound 10 µM, first compound 3.16 µM): 88.1% | viability, T/C (second compound 10 µM, first compound 10 µM): 84.9%

Cn1ncnc1C1c2n[nH]c(=O)c3cc(F)cc(c23)NC1c1ccc(F)cc1 (stereo not given) + NC1CCC(NC2CC2c2ccccc2)CC1
IC50 (second compound 0.1 µM): > 0.1 µM | IC50 (second compound 0.316 µM): > 0.1 µM | IC50 (second compound 1 µM): > 0.1 µM | IC50 (second compound 3.16 µM): > 0.1 µM | IC50 (second compound 10 µM): > 0.1 µM | viability, T/C (second compound 0.1 µM, first compound 0.000316 µM): 117% | viability, T/C (second compound 0.1 µM, first compound 0.001 µM): 114% | viability, T/C (second compound 0.1 µM, first compound 0.00316 µM): 117% | viability, T/C (second compound 0.1 µM, first compound 0.01 µM): 113% | viability, T/C [1]: 109% | viability, T/C [2]: 109% | viability, T/C (second compound 0.316 µM, first compound 0.000316 µM): 127% | viability, T/C (second compound 0.316 µM, first compound 0.001 µM): 118% | viability, T/C (second compound 0.316 µM, first compound 0.00316 µM): 121% | viability, T/C (second compound 0.316 µM, first compound 0.01 µM): 117% | viability, T/C [3]: 115% | viability, T/C [4]: 113% | viability, T/C (second compound 1 µM, first compound 0.000316 µM): 109% | viability, T/C (second compound 1 µM, first compound 0.001 µM): 115% | viability, T/C (second compound 1 µM, first compound 0.00316 µM): 114% | viability, T/C (second compound 1 µM, first compound 0.01 µM): 115% | viability, T/C [5]: 110% | viability, T/C [6]: 105% | viability, T/C (second compound 3.16 µM, first compound 0.000316 µM): 107% | viability, T/C (second compound 3.16 µM, first compound 0.001 µM): 106% | viability, T/C (second compound 3.16 µM, first compound 0.00316 µM): 112% | viability, T/C (second compound 3.16 µM, first compound 0.01 µM): 109% | viability, T/C [7]: 106% | viability, T/C [8]: 98.8% | viability, T/C (second compound 10 µM, first compound 0.000316 µM): 90.5% | viability, T/C (second compound 10 µM, first compound 0.001 µM): 88.1% | viability, T/C (second compound 10 µM, first compound 0.00316 µM): 91.5% | viability, T/C (second compound 10 µM, first compound 0.01 µM): 89.3% | viability, T/C [9]: 91.5% | viability, T/C [10]: 84.1%
